Results published in patent US11116778B2, “Prodrugs of ALOX-15 inhibitors and methods of using the same” (EMPIRICO INC., priority 2019, dated 2021).

Test system: ALOX15 mRNA
Experiment: ALOX15 mRNA by RT-qPCR in rabbit nasal mucosa
Format: in vivo
Settings: rostral and caudal regions; rabbits, compound 5 10 mM intranasal
Protocol: Six (6) female NZW rabbits were employed in this study. Rabbits were obtained from Covance (Denver Pa.). Rabbits were between approximately 10 and 12 months of age at the time of study start. At time point 0, all animals received 50 μL of solution containing rabbit IL4 (RND Systems/Biotechne) and human IL13 (PreproTech) at a concentration of 0.25 mg/mL each in 0.5×PBS containing 12.5 mg/mL BSA per nostril. This was administered intranasally via a venous catheter attached to a micropipette. The animal was positioned in a supine manner and the venous catheter inserted into the nostril. The volume was introduced into the nasal cavity and the same procedure was repeated with the other nostril. […]
Relative ALOX15 and POSTN mRNA levels in nasal mucosa were measured by RT-qPCR. […] The level of ALOX15 or POSTN mRNA from each sample was measured in triplicate by real-time qPCR on an Applied Biosystems 7500 Fast Real-Time PCR machine using the TaqMan Gene Expression Assay for rabbit ALOX15 (ThermoFisher, assay #Oc03823548_s1). The level of GAPDH mRNA was measured in biplex reactions using TaqMan Gene Expression Assay (ThermoFisher, assay #Oc03823402_g1) and used to determine relative ALOX15 mRNA levels in each well using the delta-delta Ct method. […] Relative POSTN mRNA levels were measured as above using TaqMan Gene Expression Assay specific for rabbit POSTN mRNA (ThermoFisher, assay #Oc06804808_s1). […]

SMILES: O=C(Nc1ccc(F)cc1Cl)c1nn(COP(=O)(O)O)c(Cl)c1Cl [compound 5, (4,5-dichloro-3-((2-chloro-4-fluorophenyl)carbamoyl)-1H-pyrazol-1-yl)methyl dihydrogen phosphate]
- relative level of ALOX15 mRNA in nasal mucosa versus vehicle (FIG. 11): lower
